# Reference: ChEMBL document CHEMBL1143427, “Interactions of ceftobiprole with beta-lactamases from molecular classes A to D” (Antimicrob Agents Chemother, 2007)
# How the values were obtained:
# [1] = tested on: Nc1nc(/C(=N/O)C(=O)N[C@@H]2C(=O)N3C(C(=O)O)=C(/C=C4\CCN([C@@H]5CCNC5)C4=O)CS[C@H]23)ns1; assay: (§1) Activity of Pseudomonas aeruginosa VIM2 assessed as drug hydrolysis by spectrophotometry
# [2] = tested on: CC(C)(O/N=C(\C(=O)N[C@@H]1C(=O)N2C(C(=O)[O-])=C(C[n+]3ccccc3)CS[C@H]12)c1csc(N)n1)C(=O)O; assay: as §1
# [3] = tested on: O=C(Cc1cccs1)N[C@@H]1C(=O)N2C(C(=O)[O-])=C(C[n+]3ccccc3)CS[C@H]12; assay: as §1
# [4] = tested on: CC(C)(O/N=C(\C(=O)N[C@@H]1C(=O)N2C(C(=O)[O-])=C(C[n+]3ccccc3)CS[C@H]12)c1csc(N)n1)C(=O)O; assay: (§2) Ratio of Kcat to Km of Pseudomonas aeruginosa VIM2 assessed as drug hydrolysis by spectrophotometry
# [5] = tested on: O=C(Cc1cccs1)N[C@@H]1C(=O)N2C(C(=O)[O-])=C(C[n+]3ccccc3)CS[C@H]12; assay: as §2
# [6] = molecular target: Beta-lactamase (Pseudomonas aeruginosa (strain ATCC 15692 / PAO1 / 1C / PRS 101 / LMG12228)) (UniProt P24735); assay: Activity of Pseudomonas aeruginosa 4352 AmpC assessed as drug hydrolysis by spectrophotometry relative to cephaloridine; parameters: scale not given: the % may be the effect or the level left
# [7] = molecular target: Beta-lactamase (Pseudomonas aeruginosa (strain ATCC 15692 / PAO1 / 1C / PRS 101 / LMG12228)) (UniProt P24735); assay: Ratio of Kcat to Km of Pseudomonas aeruginosa MK-1184 AmpC assessed as drug hydrolysis by spectrophotometry relative to cephaloridine; parameters: scale not given: the % may be the effect or the level left
# [8] = molecular target: T1, Carbapenem-hydrolyzing beta-lactamase SME-3 (Serratia marcescens) (UniProt Q6PRG8); assay: Activity of Serratia marcescens SME3 assessed as drug hydrolysis by spectrophotometry relative to cephaloridine; parameters: scale not given: the % may be the effect or the level left
# T1 sequence (whole entry): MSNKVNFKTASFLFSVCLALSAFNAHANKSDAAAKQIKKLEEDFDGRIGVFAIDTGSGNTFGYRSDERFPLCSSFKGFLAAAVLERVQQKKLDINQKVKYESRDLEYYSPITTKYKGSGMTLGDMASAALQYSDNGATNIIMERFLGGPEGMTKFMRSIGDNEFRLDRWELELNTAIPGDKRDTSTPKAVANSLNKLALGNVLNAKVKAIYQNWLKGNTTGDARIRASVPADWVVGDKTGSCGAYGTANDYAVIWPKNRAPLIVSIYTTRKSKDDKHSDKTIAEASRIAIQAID
# [9] = molecular target: Beta-lactamase (Pseudomonas aeruginosa (strain ATCC 15692 / PAO1 / 1C / PRS 101 / LMG12228)) (UniProt P24735); assay: Activity of Pseudomonas aeruginosa AmpC assessed as drug hydrolysis by spectrophotometry relative to cephaloridine; parameters: scale not given: the % may be the effect or the level left
# [10] = molecular target: Beta-lactamase (Morganella morganii) (UniProt P94958); assay: Ratio of Kcat to Km of Morganella morganii AmpC assessed as drug hydrolysis by spectrophotometry relative to cephaloridine; parameters: scale not given: the % may be the effect or the level left
# [11] = tested on: Klebsiella pneumoniae; assay: Activity of Klebsiella pneumoniae TEM26 assessed as drug hydrolysis by spectrophotometry
# [12] = molecular target: Beta-lactamase VIM-2 (Pseudomonas aeruginosa) (UniProt Q9K2N0); assay: Activity of Pseudomonas aeruginosa VIM2 assessed as drug hydrolysis by spectrophotometry relative to cephaloridine; parameters: scale not given: the % may be the effect or the level left
# [13] = molecular target: T2, Beta-lactamase (Providencia stuartii) (UniProt O69773); assay: Activity of Providencia stuartii AmpC assessed as drug hydrolysis by spectrophotometry relative to cephaloridine; parameters: scale not given: the % may be the effect or the level left
# T2 sequence (whole entry): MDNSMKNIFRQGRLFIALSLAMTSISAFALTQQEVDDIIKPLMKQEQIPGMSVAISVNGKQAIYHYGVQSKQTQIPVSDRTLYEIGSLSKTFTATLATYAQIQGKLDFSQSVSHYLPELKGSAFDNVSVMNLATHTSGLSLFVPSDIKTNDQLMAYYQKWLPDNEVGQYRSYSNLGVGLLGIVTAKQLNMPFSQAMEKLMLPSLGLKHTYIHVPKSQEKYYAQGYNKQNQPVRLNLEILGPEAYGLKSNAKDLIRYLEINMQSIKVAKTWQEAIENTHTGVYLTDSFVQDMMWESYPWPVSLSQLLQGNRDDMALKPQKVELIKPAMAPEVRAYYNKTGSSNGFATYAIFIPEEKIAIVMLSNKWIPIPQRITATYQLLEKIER
# [14] = tested on: Klebsiella pneumoniae; assay: Activity of Klebsiella pneumoniae TEM26 assessed as drug hydrolysis by spectrophotometry relative to cephaloridine; parameters: scale not given: the % may be the effect or the level left
# [15] = molecular target: Beta-lactamase (Pseudomonas aeruginosa (strain ATCC 15692 / PAO1 / 1C / PRS 101 / LMG12228)) (UniProt P24735); assay: Activity of Pseudomonas aeruginosa MK-1184 AmpC assessed as drug hydrolysis by spectrophotometry relative to cephaloridine; parameters: scale not given: the % may be the effect or the level left
# [16] = molecular target: Beta-lactamase (Pseudomonas aeruginosa (strain ATCC 15692 / PAO1 / 1C / PRS 101 / LMG12228)) (UniProt P24735); assay: Ratio of Kcat to Km of Pseudomonas aeruginosa 4352 AmpC assessed as drug hydrolysis by spectrophotometry relative to cephaloridine; parameters: scale not given: the % may be the effect or the level left
# [17] = tested on: Klebsiella pneumoniae; assay: Ratio of Kcat to Km of Klebsiella pneumoniae TEM26 assessed as drug hydrolysis by spectrophotometry
# [18] = molecular target: Beta-lactamase TEM (Escherichia coli) (UniProt P62593); assay: Ratio of Kcat to Km of Escherichia coli TEM1 assessed as drug hydrolysis by spectrophotometry relative to cephaloridine; parameters: scale not given: the % may be the effect or the level left
# [19] = molecular target: Beta-lactamase VIM-2 (Pseudomonas aeruginosa) (UniProt Q9K2N0); assay: Ratio of Kcat to Km of Pseudomonas aeruginosa VIM2 assessed as drug hydrolysis by spectrophotometry relative to cephaloridine; parameters: scale not given: the % may be the effect or the level left
# [20] = molecular target: Beta-lactamase (Staphylococcus aureus) (UniProt P00807); assay: Activity of Staphylococcus aureus betalactamase PC1 assessed as drug hydrolysis by spectrophotometry relative to cephaloridine; parameters: scale not given: the % may be the effect or the level left
# [21] = molecular target: T2, Beta-lactamase (Providencia stuartii); assay: Ratio of Kcat to Km of Providencia stuartii AmpC assessed as drug hydrolysis by spectrophotometry relative to cephaloridine; parameters: scale not given: the % may be the effect or the level left
# [22] = molecular target: Beta-lactamase (Morganella morganii) (UniProt P94958); assay: Activity of Morganella morganii AmpC assessed as drug hydrolysis by spectrophotometry relative to cephaloridine; parameters: scale not given: the % may be the effect or the level left
# [23] = molecular target: Beta-lactamase TEM (Escherichia coli) (UniProt P62593); assay: Activity of Escherichia coli TEM1 assessed as drug hydrolysis by spectrophotometry relative to cephaloridine; parameters: scale not given: the % may be the effect or the level left
# [24] = molecular target: Beta-lactamase CTX-M (Escherichia coli) (UniProt Q9EXV5); assay: Ratio of Kcat to Km of Escherichia coli CTX-M-15 assessed as drug hydrolysis by spectrophotometry relative to cephaloridine; parameters: scale not given: the % may be the effect or the level left
# [25] = molecular target: Beta-lactamase (Staphylococcus aureus) (UniProt P00807); assay: Ratio of Kcat to Km of Staphylococcus aureus betalactamase PC1 assessed as drug hydrolysis by spectrophotometry relative to cephaloridine; parameters: scale not given: the % may be the effect or the level left
# [26] = molecular target: Beta-lactamase CTX-M (Escherichia coli) (UniProt Q9EXV5); assay: Activity of Escherichia coli CTX-M-15 assessed as drug hydrolysis by spectrophotometry relative to cephaloridine; parameters: scale not given: the % may be the effect or the level left
# [27] = molecular target: Beta-lactamase (Serratia marcescens) (UniProt P18539); assay: Ratio of Kcat to Km of Serratia marcescens AmpC assessed as drug hydrolysis by spectrophotometry relative to cephaloridine; parameters: scale not given: the % may be the effect or the level left
# [28] = molecular target: T1, Carbapenem-hydrolyzing beta-lactamase SME-3 (Serratia marcescens); assay: Ratio of Kcat to Km of Serratia marcescens SME3 assessed as drug hydrolysis by spectrophotometry relative to cephaloridine; parameters: scale not given: the % may be the effect or the level left
# [29] = molecular target: T3, Beta-lactamase SHV-1 (Klebsiella pneumoniae) (UniProt P0AD64); assay: Activity of Klebsiella pneumoniae SHV1 assessed as drug hydrolysis by spectrophotometry relative to cephaloridine; parameters: scale not given: the % may be the effect or the level left
# T3 sequence (whole entry): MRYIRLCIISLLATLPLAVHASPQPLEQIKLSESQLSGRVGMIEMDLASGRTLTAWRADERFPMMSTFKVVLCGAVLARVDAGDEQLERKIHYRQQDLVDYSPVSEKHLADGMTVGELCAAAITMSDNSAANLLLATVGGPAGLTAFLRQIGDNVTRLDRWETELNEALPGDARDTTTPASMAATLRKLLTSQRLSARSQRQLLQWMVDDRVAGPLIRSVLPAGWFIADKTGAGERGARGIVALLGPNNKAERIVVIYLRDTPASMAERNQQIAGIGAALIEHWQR
# [30] = tested on: Klebsiella pneumoniae; assay: Ratio of Kcat to Km of Klebsiella pneumoniae TEM26 assessed as drug hydrolysis by spectrophotometry relative to cephaloridine; parameters: scale not given: the % may be the effect or the level left
# [31] = molecular target: Beta-lactamase (Pseudomonas aeruginosa (strain ATCC 15692 / PAO1 / 1C / PRS 101 / LMG12228)) (UniProt P24735); assay: Ratio of Kcat to Km of Pseudomonas aeruginosa AmpC assessed as drug hydrolysis by spectrophotometry relative to cephaloridine; parameters: scale not given: the % may be the effect or the level left
# [32] = molecular target: T3, Beta-lactamase SHV-1 (Klebsiella pneumoniae); assay: Ratio of Kcat to Km of Klebsiella pneumoniae SHV1 assessed as drug hydrolysis by spectrophotometry relative to cephaloridine; parameters: scale not given: the % may be the effect or the level left
# [33] = molecular target: Metallo beta-lactamase (Pseudomonas aeruginosa) (UniProt Q6TUJ4); assay: Ratio of Kcat to Km of Pseudomonas aeruginosa IMP1 assessed as drug hydrolysis by spectrophotometry relative to cephaloridine; parameters: scale not given: the % may be the effect or the level left
# [34] = molecular target: Beta-lactamase (Pseudomonas aeruginosa (strain ATCC 15692 / PAO1 / 1C / PRS 101 / LMG12228)) (UniProt P24735); assay: Ratio of Kcat to Km of Pseudomonas aeruginosa 18SH AmpC assessed as drug hydrolysis by spectrophotometry relative to cephaloridine; parameters: scale not given: the % may be the effect or the level left
# [35] = molecular target: Beta-lactamase (Serratia marcescens) (UniProt P18539); assay: Activity of Serratia marcescens AmpC assessed as drug hydrolysis by spectrophotometry relative to cephaloridine; parameters: scale not given: the % may be the effect or the level left
# [36] = molecular target: Beta-lactamase (Pseudomonas aeruginosa (strain ATCC 15692 / PAO1 / 1C / PRS 101 / LMG12228)) (UniProt P24735); assay: Activity of Pseudomonas aeruginosa 18SH AmpC assessed as drug hydrolysis by spectrophotometry relative to cephaloridine; parameters: scale not given: the % may be the effect or the level left
# [37] = molecular target: T4, Beta-lactamase (Klebsiella oxytoca) (UniProt Q8RT60); assay: Ratio of Kcat to Km of Klebsiella oxytoca beta-lactamase K1 assessed as drug hydrolysis by spectrophotometry relative to cephaloridine; parameters: scale not given: the % may be the effect or the level left
# T4 sequence (whole entry): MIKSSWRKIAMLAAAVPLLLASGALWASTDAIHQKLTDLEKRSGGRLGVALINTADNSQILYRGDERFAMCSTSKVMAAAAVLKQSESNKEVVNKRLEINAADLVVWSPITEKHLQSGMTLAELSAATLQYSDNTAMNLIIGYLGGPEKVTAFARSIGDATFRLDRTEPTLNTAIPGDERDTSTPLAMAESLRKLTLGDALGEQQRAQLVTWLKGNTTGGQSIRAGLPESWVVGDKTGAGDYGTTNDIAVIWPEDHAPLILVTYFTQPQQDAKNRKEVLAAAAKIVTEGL
# [38] = molecular target: T4, Beta-lactamase (Klebsiella oxytoca); assay: Activity of Klebsiella oxytoca beta-lactamase K1 assessed as drug hydrolysis by spectrophotometry relative to cephaloridine; parameters: scale not given: the % may be the effect or the level left
# Sequence of Beta-lactamase (Pseudomonas aeruginosa (strain ATCC 15692 / PAO1 / 1C / PRS 101 / LMG12228)) (P24735 27-397 limits assumed): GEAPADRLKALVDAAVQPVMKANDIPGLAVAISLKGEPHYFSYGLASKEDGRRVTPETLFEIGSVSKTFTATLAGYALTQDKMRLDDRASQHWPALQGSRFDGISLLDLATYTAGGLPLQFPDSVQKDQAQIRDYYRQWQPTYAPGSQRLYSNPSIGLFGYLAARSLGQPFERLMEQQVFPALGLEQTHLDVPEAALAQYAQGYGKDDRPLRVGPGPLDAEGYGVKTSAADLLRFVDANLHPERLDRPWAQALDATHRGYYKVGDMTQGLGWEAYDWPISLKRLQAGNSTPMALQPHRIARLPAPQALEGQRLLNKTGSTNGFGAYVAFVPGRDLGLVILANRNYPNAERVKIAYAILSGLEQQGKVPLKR
# Sequence of Beta-lactamase (Staphylococcus aureus) (P00807 whole entry): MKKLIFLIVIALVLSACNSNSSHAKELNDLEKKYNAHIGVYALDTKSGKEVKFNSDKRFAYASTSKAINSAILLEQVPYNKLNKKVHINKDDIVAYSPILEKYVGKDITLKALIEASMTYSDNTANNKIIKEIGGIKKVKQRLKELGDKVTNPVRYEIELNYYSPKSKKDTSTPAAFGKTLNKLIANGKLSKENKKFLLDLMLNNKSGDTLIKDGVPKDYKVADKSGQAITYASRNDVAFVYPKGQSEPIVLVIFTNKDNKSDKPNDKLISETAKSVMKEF
# Sequence of Beta-lactamase (Serratia marcescens) (P18539 whole entry): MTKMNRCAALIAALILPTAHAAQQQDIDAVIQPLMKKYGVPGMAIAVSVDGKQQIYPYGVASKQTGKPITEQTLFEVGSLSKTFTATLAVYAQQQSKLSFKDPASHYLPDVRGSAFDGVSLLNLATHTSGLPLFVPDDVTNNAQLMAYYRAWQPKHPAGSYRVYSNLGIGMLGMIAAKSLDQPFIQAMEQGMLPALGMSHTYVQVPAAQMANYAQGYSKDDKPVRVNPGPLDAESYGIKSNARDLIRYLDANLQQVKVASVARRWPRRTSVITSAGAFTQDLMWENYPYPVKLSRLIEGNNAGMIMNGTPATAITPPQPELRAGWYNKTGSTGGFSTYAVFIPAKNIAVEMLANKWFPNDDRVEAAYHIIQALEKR
# Sequence of Beta-lactamase TEM (Escherichia coli) (P62593 whole entry): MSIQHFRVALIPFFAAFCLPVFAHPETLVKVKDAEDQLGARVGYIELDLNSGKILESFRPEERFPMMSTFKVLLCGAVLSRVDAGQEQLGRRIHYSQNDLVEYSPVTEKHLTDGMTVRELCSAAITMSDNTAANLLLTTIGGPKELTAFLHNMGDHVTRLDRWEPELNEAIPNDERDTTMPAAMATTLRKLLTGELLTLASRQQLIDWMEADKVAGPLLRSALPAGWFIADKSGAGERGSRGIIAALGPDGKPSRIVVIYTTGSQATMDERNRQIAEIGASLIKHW
# Sequence of Metallo beta-lactamase (Pseudomonas aeruginosa) (Q6TUJ4 as listed by the source): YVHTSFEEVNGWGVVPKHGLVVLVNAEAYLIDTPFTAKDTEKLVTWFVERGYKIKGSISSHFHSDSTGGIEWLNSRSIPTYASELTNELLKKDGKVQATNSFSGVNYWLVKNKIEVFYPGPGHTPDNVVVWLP
molecule,measurement,setting,value
Beta-lactamase VIM-2 (Pseudomonas aeruginosa) (from UniProt Q9K2N0),Km,[1],46 µM
same,kcat,[1],15 s⁻¹
same,Km,[2],150 µM
same,kcat,[2],0.23 s⁻¹
same,Km,[3],1400 µM
same,kcat,[3],120 s⁻¹
same,kcat/Km,[4],1500 M⁻¹ s⁻¹
same,kcat/Km,[5],86000 M⁻¹ s⁻¹
CO/N=C(\C(=O)N[C@@H]1C(=O)N2C(C(=O)[O-])=C(C[N+]3(C)CCCC3)CS[C@H]12)c1csc(N)n1,Activity,[6],< 0.012%
same,Activity,[7],0.78%
same,Activity,[8],0.13%
same,Activity,[9],19%
same,Activity,[10],< 0.018%
same,Km,[11],65 µM
same,kcat,[11],20 s⁻¹
same,Activity,[12],0.32%
same,Activity,[13],0.57%
same,Activity,[14],54%
same,Activity,[15],1.5%
same,Activity,[16],0.011%
same,kcat/Km,[17],310000 M⁻¹ s⁻¹
same,Activity,[18],0.38%
same,Activity,[19],4.1%
same,Activity,[20],1.4%
same,Activity,[21],0.66%
same,Activity,[22],< 0.047%
same,Activity,[23],0.45%
same,Activity,[24],5.1%
same,Activity,[25],2.5%
same,Activity,[26],24%
same,Activity,[27],< 0.022%
same,Activity,[28],0.18%
same,Activity,[29],0.42%
same,Activity,[30],55%
same,Activity,[31],1.6%
same,Activity,[32],0.81%
same,Activity,[33],200%
same,Activity,[34],0.5%
same,Activity,[35],< 0.028%
same,Activity,[36],< 0.1%
same,Activity,[37],0.84%
same,Activity,[38],8.5%
